Reference: ChEMBL document CHEMBL1201862, “PubChem BioAssay data set” (2004)
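Cultured in 96-well plates, cells were exposed to test compound for 48 hours across five concentrations. GI50 is the concentration that inhibits growth by half.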 Calls of active or inactive are those of the source. Cut-off read from the data, not from the text of the source: active = GI50 up to about 1.1 µM and inactive = higher.

Key:
Test in all cases: DTP human tumour cell line panel, 48 h
K562 = tested on: K562
MOLT-4 = tested on: MOLT-4
SK-MEL-2 = tested on: SK-MEL-2
SK-OV-3 = tested on: SK-OV-3
IGROV-1 = tested on: IGROV-1
RXF 393 = tested on: RXF 393
NCI-H23 = tested on: NCI-H23
OVCAR-5 = tested on: OVCAR-5
UO-31 = tested on: UO-31
HT-29 = tested on: HT-29
SF-295 = tested on: SF-295
OVCAR-3 = tested on: OVCAR-3
SK-MEL-28 = tested on: SK-MEL-28
NCI-H460 = tested on: NCI-H460
KM12 = tested on: KM12
HOP-62 = tested on: HOP-62
SK-MEL-5 = tested on: SK-MEL-5
UACC-62 = tested on: UACC-62
CCRF-CEM = tested on: CCRF-CEM
OVCAR-8 = tested on: OVCAR-8

Measured: GI50

COc1ccc2c(c1)C(=O)/C(=C/c1ccccc1)C2
inactive: K562 29 µM | MOLT-4 16.3 µM | SK-MEL-2 74.1 µM | SK-OV-3 > 100 µM | IGROV-1 > 100 µM | RXF 393 43.9 µM | NCI-H23 42.4 µM | OVCAR-5 52.5 µM | UO-31 49.7 µM | HT-29 31.6 µM | SF-295 > 100 µM | OVCAR-3 39.2 µM | SK-MEL-28 > 100 µM | NCI-H460 34 µM | KM12 > 100 µM | HOP-62 29.6 µM | SK-MEL-5 29.4 µM | UACC-62 52.6 µM | CCRF-CEM 11.3 µM | OVCAR-8 > 100 µM

C/C(=N\Oc1cc(Cl)ncn1)c1ccccn1
inactive: K562 56.5 µM | MOLT-4 39.2 µM | SK-MEL-2 14.1 µM | SK-OV-3 92.5 µM | IGROV-1 21.9 µM | RXF 393 4 µM | NCI-H23 34.1 µM | OVCAR-5 37.8 µM | UO-31 52 µM | HT-29 95.7 µM | SF-295 63 µM | OVCAR-3 20.2 µM | SK-MEL-28 39.5 µM | NCI-H460 25.3 µM | KM12 > 100 µM | HOP-62 38.1 µM | SK-MEL-5 28.1 µM | UACC-62 47.5 µM | CCRF-CEM 34.4 µM | OVCAR-8 > 100 µM

CCOC(=O)c1csc(NC(=O)CCN2CCCC2)n1
inactive: K562 > 100 µM | MOLT-4 > 100 µM | SK-MEL-2 > 100 µM | SK-OV-3 > 100 µM | IGROV-1 > 100 µM | RXF 393 > 100 µM | NCI-H23 > 100 µM | OVCAR-5 > 100 µM | UO-31 > 100 µM | HT-29 > 100 µM | SF-295 > 100 µM | OVCAR-3 > 100 µM | SK-MEL-28 > 100 µM | NCI-H460 > 100 µM | KM12 > 100 µM | HOP-62 > 100 µM | SK-MEL-5 > 100 µM | UACC-62 > 100 µM | CCRF-CEM > 100 µM | OVCAR-8 > 100 µM

CC(=O)OCc1nnn2c1CCC2
inactive: K562 > 100 µM | MOLT-4 > 100 µM | SK-MEL-2 > 100 µM | SK-OV-3 > 100 µM | IGROV-1 > 100 µM | RXF 393 > 100 µM | NCI-H23 > 10 µM | OVCAR-5 > 100 µM | UO-31 > 100 µM | HT-29 > 100 µM | SF-295 > 100 µM | OVCAR-3 > 100 µM | SK-MEL-28 > 100 µM | NCI-H460 > 100 µM | KM12 > 100 µM | HOP-62 > 100 µM | SK-MEL-5 > 100 µM | UACC-62 > 100 µM | CCRF-CEM > 100 µM | OVCAR-8 > 100 µM

O=C1C=C(C2OC(CO)C(O)C2O)C(=O)N1 (stereo not given)
inactive: K562 47.6 µM | MOLT-4 45.6 µM | SK-MEL-2 > 100 µM | SK-OV-3 > 100 µM | IGROV-1 > 100 µM | RXF 393 > 100 µM | NCI-H23 > 100 µM | OVCAR-5 > 100 µM | UO-31 > 100 µM | HT-29 > 100 µM | SF-295 > 100 µM | OVCAR-3 > 100 µM | SK-MEL-28 > 100 µM | NCI-H460 > 100 µM | KM12 > 100 µM | HOP-62 > 100 µM | SK-MEL-5 > 100 µM | UACC-62 > 100 µM | CCRF-CEM 32.5 µM | OVCAR-8 > 100 µM

COC1OC2=CCC3C(=O)NC(=O)C3C2[C@H](OCc2ccccc2)C1OCc1ccccc1 (stereo not given in full)
inactive: K562 1.82 µM | MOLT-4 1.5 µM | SK-MEL-2 5.36 µM | SK-OV-3 17.1 µM | IGROV-1 2.04 µM | RXF 393 1.61 µM | NCI-H23 2.22 µM | OVCAR-5 15.7 µM | UO-31 17.7 µM | HT-29 1.82 µM | SF-295 18.1 µM | OVCAR-3 1.71 µM | SK-MEL-28 1.84 µM | NCI-H460 17.9 µM | KM12 5.9 µM | HOP-62 17.9 µM | SK-MEL-5 19 µM | UACC-62 2.46 µM | CCRF-CEM 1.15 µM | OVCAR-8 1.6 µM
